Data: patent US20230413819A1, “METHODS FOR CONTROLLING FLEA AND TICK INFESTATIONS IN A MAMMAL” (In the Bowl Animal Health, Inc., priority 2021, published 2023)
Values joined by “and” are separate entries in the source; they are usually repeats but may differ in a detail not shown here. Equal values may be shown once.

What was measured:
[1] = Plasma concentration of mivorilaner, 0.75 mg/kg daily oral (Examples 4 and 10); assay type: in vivo, dogs
Experimental: Each dog in the treatment group is to receive by mouth a liquid formulation of isoxazoline. The dosage of 0.75 mg/kg is to be administered to the dogs on each of days 0-29.
Dogs in the control group are not to receive isoxazoline or any other tick control treatment. Each dog in the treatment group is to be offered its daily ration (dry food) and the individual doses of liquid formulation are to be administered after the individual dog has eaten at least 25% of its total daily ration. After receiving the dose of isoxazoline, the dogs are to be allowed to continue eating. This mimics incorporating the isoxazoline in feed. Each dog in the treatment group and the control group is to be experimentally infested with 50 adult ticks on test days 5, 12, 19, 28 and 35. Comb counts for live and moribund attached ticks are to be conducted on days 7, 14, 21, 30 and 37.
Dogs in the control group are not to receive isoxazoline or any other flea control treatment. Each dog in the treatment group is to be offered its daily ration (dry food) and the individual doses of liquid formulation are to be administered after the individual dog has eaten at least 25% of its total daily ration. After receiving the dose of isoxazoline, the dogs are to be allowed to continue eating. This mimics incorporating the isoxazoline in feed. Each dog in the treatment group and the control group is to be experimentally infested with 100 unfed adult fleas on test days 2, 5, 12, 20 and 35. Comb counts for live adult fleas are to be conducted on days 4, 7, 14, 21 and 37.

[2] = Average plasma concentration of mivorilaner, various daily oral doses (Examples 5 and 11); assay type: in vivo, dogs; details: dog, fed; for concentration at 0 h: 0 h after initial dose; for concentration at 72 h: 72 h after initial dose; for concentration at 120 h: 120 h after initial dose; for concentration at 168 h: 168 h after initial dose; for concentration at 336 h: 336 h after initial dose; for concentration at 504 h: 504 h after initial dose; for concentration at 720 h: 720 h after initial dose; for concentration at 888 h: 888 h after initial dose; for concentration at 1056 h: 1056 h after initial dose; for concentration at 1224 h: 1224 h after initial dose; for concentration at 1440 h: 1440 h after initial dose

O=C(CNC(=O)c1sc(C2=NO[C@@](c3cc(Cl)c(F)c(Cl)c3)(C(F)(F)F)C2)c2c1CCC2)NCC(F)F [mivorilaner, 3-[(5S)-5-(3,5-dichloro-4-fluorophenyl)-5-(trifluoromethyl)-4,5-dihydroisoxazol-3-yl]-N-[2-[(2,2-difluoroethyl)amino]-2-oxoethyl]-5,6-dihydro-4H-cyclopenta[c]thiophene-1-carboxamide]
Mivorilaner Concentration, individual canines ([1]; 0.75 mg/kg/day oral days 0-29, Day 3, 0.75 mg/kg/day): 579 ng/mL and 660 ng/mL and 800 ng/mL and 798 ng/mL and 556 ng/mL and 648 ng/mL | Mivorilaner Concentration, individual canines ([1]; 0.75 mg/kg/day oral days 0-29, Day 7, 0.75 mg/kg/day): 994 ng/mL and 1470 ng/mL and 1620 ng/mL and 1660 ng/mL and 1330 ng/mL | Mivorilaner Concentration, individual canines ([1]; 0.75 mg/kg/day oral days 0-29, Day 14, 0.75 mg/kg/day): 1560 ng/mL and 2120 ng/mL and 2370 ng/mL and 2060 ng/mL and 1990 ng/mL and 2530 ng/mL | Mivorilaner Concentration, individual canines ([1]; 0.75 mg/kg/day oral days 0-29, Day 21, 0.75 mg/kg/day): 2450 ng/mL and 2720 ng/mL and 2950 ng/mL and 2660 ng/mL and 2750 ng/mL and 2820 ng/mL | Mivorilaner Concentration, individual canines ([1]; 0.75 mg/kg/day oral days 0-29, Day 30, 0.75 mg/kg/day): 2320 ng/mL and 2600 ng/mL and 2790 ng/mL and 2570 ng/mL and 2890 ng/mL | Mivorilaner Concentration, individual canines ([1]; 0.75 mg/kg/day oral days 0-29, Day 37, 0.75 mg/kg/day): 1880 ng/mL and 2010 ng/mL and 1980 ng/mL and 1750 ng/mL and 2070 ng/mL and 2410 ng/mL | Mivorilaner Concentration, individual canines ([1]; 0.75 mg/kg/day oral days 0-29, Day −1 (before first dose)): BLQ | concentration at 30 day ([1]; dog, po, 0.75 mg/kg/day, 0.75 mg/kg/day oral days 0-29, Day 30, read-out: Mivorilaner Concentration, individual canines): 2890 ng/mL | concentration at 0 h ([2]; Group 2, 0.125 mg/kg/day oral): 0 ng/mL | concentration at 72 h ([2]; Group 2, 0.125 mg/kg/day oral): 136 ng/mL | concentration at 120 h ([2]; Group 2, 0.125 mg/kg/day oral): 213 ng/mL | concentration at 168 h ([2]; Group 2, 0.125 mg/kg/day oral): 244 ng/mL | concentration at 336 h ([2]; Group 2, 0.125 mg/kg/day oral): 384 ng/mL | concentration at 504 h ([2]; Group 2, 0.125 mg/kg/day oral): 404 ng/mL | concentration at 720 h ([2]; Group 2, 0.125 mg/kg/day oral): 420 ng/mL | concentration at 888 h ([2]; Group 2, 0.125 mg/kg/day oral): 448 ng/mL | concentration at 1056 h ([2]; Group 2, 0.125 mg/kg/day oral): 428 ng/mL | concentration at 1224 h ([2]; Group 2, 0.125 mg/kg/day oral): 486 ng/mL | concentration at 1440 h ([2]; Group 2, 0.125 mg/kg/day oral): 898 ng/mL | concentration at 0 h ([2]; Group 3, 0.25 mg/kg/day oral): 0 ng/mL | concentration at 72 h ([2]; Group 3, 0.25 mg/kg/day oral): 283 ng/mL | concentration at 120 h ([2]; Group 3, 0.25 mg/kg/day oral): 450 ng/mL | concentration at 168 h ([2]; Group 3, 0.25 mg/kg/day oral): 579 ng/mL | concentration at 336 h ([2]; Group 3, 0.25 mg/kg/day oral): 883 ng/mL | concentration at 504 h ([2]; Group 3, 0.25 mg/kg/day oral): 878 ng/mL | concentration at 720 h ([2]; Group 3, 0.25 mg/kg/day oral): 1020 ng/mL | concentration at 888 h ([2]; Group 3, 0.25 mg/kg/day oral): 1000 ng/mL | concentration at 1056 h ([2]; Group 3, 0.25 mg/kg/day oral): 945 ng/mL | concentration at 1224 h ([2]; Group 3, 0.25 mg/kg/day oral): 1040 ng/mL | concentration at 1440 h ([2]; Group 3, 0.25 mg/kg/day oral): 999 ng/mL | concentration at 0 h ([2]; Group 4, 0.5 mg/kg/day oral): 0 ng/mL | concentration at 72 h ([2]; Group 4, 0.5 mg/kg/day oral): 474 ng/mL | concentration at 120 h ([2]; Group 4, 0.5 mg/kg/day oral): 763 ng/mL | concentration at 168 h ([2]; Group 4, 0.5 mg/kg/day oral): 888 ng/mL | concentration at 336 h ([2]; Group 4, 0.5 mg/kg/day oral): 1460 ng/mL | concentration at 504 h ([2]; Group 4, 0.5 mg/kg/day oral): 1630 ng/mL | concentration at 720 h ([2]; Group 4, 0.5 mg/kg/day oral): 1870 ng/mL | concentration at 888 h ([2]; Group 4, 0.5 mg/kg/day oral): 1990 ng/mL | concentration at 1056 h ([2]; Group 4, 0.5 mg/kg/day oral): 2010 ng/mL | concentration at 1224 h ([2]; Group 4, 0.5 mg/kg/day oral): 2320 ng/mL | concentration at 1440 h ([2]; Group 4, 0.5 mg/kg/day oral): 2300 ng/mL | concentration at 0 h ([2]; Group 5, 1.0 mg/kg/day oral): 0 ng/mL | concentration at 72 h ([2]; Group 5, 1.0 mg/kg/day oral): 951 ng/mL | concentration at 120 h ([2]; Group 5, 1.0 mg/kg/day oral): 1510 ng/mL | concentration at 168 h ([2]; Group 5, 1.0 mg/kg/day oral): 1790 ng/mL | concentration at 336 h ([2]; Group 5, 1.0 mg/kg/day oral): 2690 ng/mL | concentration at 504 h ([2]; Group 5, 1.0 mg/kg/day oral): 3020 ng/mL
